From the Deep4Chem optical property database
Blank lines part the entries; values can stand above or below the compound they belong to.

Test: solvent given as SMILES

- absorption maximum (in ClCCl): 399 nm
Compound: CCn1c2cc(-c3ccc(-c4cccs4)s3)ccc2c2ccc(-c3ccc(-c4cccs4)s3)cc21

- absorption maximum (in ClCCl): 408 nm
Compound: c1ccc(C2(c3ccccc3)c3ccc4ccc5ccccc5c4c3-c3c2ccc2ccc4ccccc4c32)cc1

- absorption maximum (in CC#N): 560 nm
Compound: CC1=CC(C)=[N+]2C1=C(c1ccccc1)c1c(C)cc(/C=C/c3ccccc3)n1[B-]2(F)F

- absorption maximum (in CC1CCCCC1): 321 nm
- absorption maximum (in CC#N): 305 nm
- absorption maximum (in CO): 305 nm
Compound: COC(=O)C(NC(=O)OC(C)(C)C)c1ccc2oc(-c3cccc(Oc4ccccc4)c3)nc2c1 (centres undefined)

- absorption maximum (in ClC(Cl)Cl): 354 nm
Compound: c1ccc2c(c1)oc1nc3oc4ccc(-n5c6ccccc6c6cc(-n7c8ccccc8c8ccccc87)ccc65)cc4c3cc12

- absorption maximum (in CCOC(C)=O): 296 nm
Compound: CCn1c(-c2ccc(N(c3ccccc3)c3cccc4ccccc34)cc2)c(-c2ccc3ccccc3c2)c(-c2ccc3ccccc3c2)c1-c1ccc(N(c2ccccc2)c2cccc3ccccc23)cc1

- absorption maximum (in C1CCOC1): 397 nm
Compound: CCCCCCOc1cc(C=C2c3ccccc3-c3ccccc32)c(OCCCCCC)cc1C=C1c2ccccc2C=Cc2ccccc21

- absorption maximum (in ClCCl): 390 nm
Compound: C[Si]1(C)c2ccc(-c3ccc(N(c4ccccc4)c4ccccc4)cc3)cc2C=Cc2cc(-c3ccc(N(c4ccccc4)c4ccccc4)cc3)ccc21

- absorption maximum (in C1CCOC1): 312 nm
Compound: O=C(c1ccc(N2c3ccccc3Oc3ccccc32)cc1)c1ccc2sc3ccccc3c2c1

- absorption maximum (in CN(C)C=O): 680 nm
Compound: COC(=O)C(N)Cc1ccc(O[Si]2(Oc3ccc(CC(N)C(=O)OC)cc3)n3c4c5ccccc5c3/N=C3N=C(/N=c5/c6ccccc6/c(n52)=N/C2=NC(=N\4)/c4ccccc42)c2ccccc2\3)cc1 (centres undefined)

- absorption maximum (in CS(C)=O): 656 nm
Compound: COc1ccc(C2=[N+]3C(=Nc4c(C)cc(-c5ccc(OC)cc5)n4[B-]3(F)F)C(C)=C2)cc1

- absorption maximum (in ClCCl): 704 nm
Compound: COc1ccc(C2=[N+]3C(=Nc4c(-c5ccc6ccccc6c5)cc(-c5ccc(OC)cc5)n4[B-]3(F)F)C(c3ccc4ccccc4c3)=C2)cc1

- absorption maximum (in ClCCl): 446 nm
Compound: COc1ccc(C#CC2=C3CCc4ccccc4C3=[O+][B-](F)(F)O2)cc1

- absorption maximum (in ClC(Cl)Cl): 349 nm
Compound: C(#Cc1ccccc1)C(C#Cc1ccccc1)=Cc1cccc(C=C(C#Cc2ccccc2)C#Cc2ccccc2)c1

- absorption maximum (in ClCCl): 390 nm
Compound: CCOC(=O)c1ccc(C2=Cc3cc4ccccc4cc3P2(=O)c2ccccc2)cc1 (centres undefined)

- absorption maximum (in ClCCl): 360 nm
Compound: CC(C)c1cccc(C(C)C)c1N1C(=O)c2cccc3c(Oc4ccc(Cl)cc4)ccc(c23)C1=O

- absorption maximum (in ClCCl): 665 nm
Compound: CCCCCCOc1ccc(N(c2ccc(OCCCCCC)cc2)c2ccc(-c3sc(-c4ccc(N(c5ccc(OCCCCCC)cc5)c5ccc(OCCCCCC)cc5)cc4)c4nc(C(=O)OCC)c(C(=O)OCC)nc34)cc2)cc1

- absorption maximum (in ClCCl): 333 nm
Compound: c1ccc2c(-c3cc4c(ccc5sc(-c6cccc7ccccc67)cc54)s3)cccc2c1

The remaining lines, values behind:

Compound: COC(=O)c1ccc(-c2nc3ccc(N(C)C)cc3s2)cc1
- absorption maximum (in C1CCCCC1): 387 nm
- absorption maximum (in CC#N): 392 nm
- absorption maximum (in CC(C)O): 393 nm
- absorption maximum (in CO): 396 nm
- absorption maximum (in CS(C)=O): 405 nm
- absorption maximum (in ClC(Cl)Cl): 395 nm
- absorption maximum (in c1ccccc1): 394 nm

Compound: Cc1nc(-c2cc(C(F)(F)F)ccc2O)n2c1CCCC2
- absorption maximum (in ClCCl): 316 nm

Compound: CN(C)c1ccc(-c2nc3nccnc3n2-c2ccccc2)cc1
- absorption maximum (in CC#N): 371 nm

Compound: CCCCCCCCC1(CCCCCCCC)c2ccccc2-c2ccc(-c3nnc(-c4cccc(-n5c6ccc(C(C)(C)C)cc6c6cc(C(C)(C)C)ccc65)c4)o3)cc21
- absorption maximum (in Cc1ccccc1): 345 nm

Compound: O=C1c2ccccc2-c2c(-c3ccccc3O)[nH]c(=O)n21
- absorption maximum (in CC#N): 393 nm
- absorption maximum (in CO): 396 nm
- absorption maximum (in ClCCl): 394 nm

Compound: FC(F)(F)c1ccc2c(c1)Nc1ccccc1S2
- absorption maximum (in CC#N): 322 nm
- absorption maximum (in CO): 324 nm

Compound: CC(=O)c1ccc(-c2cc3c(ccc4sccc43)s2)cc1
- absorption maximum (in ClCCl): 350 nm

Compound: CC1CC=C(c2ccc(-c3ccc(C#N)s3)s2)CC1 (centres undefined)
- absorption maximum (in C1CCOC1): 357 nm
- absorption maximum (in CC#N): 355 nm
- absorption maximum (in CCCCCC): 356 nm
- absorption maximum (in CCO): 358 nm
- absorption maximum (in OCCOCCO): 366 nm
- absorption maximum (in c1ccncc1): 363 nm

Compound: CC1(C)CC(=O)c2ccccc2N1
- absorption maximum (in CCO): 383 nm

Compound: I[I-]I
- absorption maximum (in O): 351.77 nm

Compound: CSc1sc(C(N)=O)c2nnn(C)c(=O)c12
- absorption maximum (in C1CCOC1): 393 nm
- absorption maximum (in CC#N): 394.5 nm
- absorption maximum (in CCO): 397 nm
- absorption maximum (in CN(C)C=O): 396.5 nm
- absorption maximum (in CO): 397 nm
- absorption maximum (in CS(C)=O): 398.5 nm

Compound: C1=CN2C[n+]3cccc(OCc4ccccc4)c3N=C2C(OCc2ccccc2)=C1
- absorption maximum (in CO): 450 nm

Compound: CCOC(=O)c1c(-c2c(Cl)c3ccccc3oc2=O)nn(-c2cccc(C)c2)c1C(=O)OCC
- absorption maximum (in ClCCl): 321 nm

Compound: N#Cc1c(-n2nnc3cc(Cl)ccc32)n([C@H]2C[C@H](O)[C@@H](CO)O2)c2ncnc(N)c12
- absorption maximum (in CO): 276 nm

Compound: O=C1Nc2ccccc2/C1=C/C(=O)c1ccc(Cl)cc1
- absorption maximum (in C1CCCCC1): 335 nm
- absorption maximum (in C1COCCO1): 335 nm
- absorption maximum (in CC#N): 332 nm
- absorption maximum (in CC(C)(C)O): 339 nm
- absorption maximum (in CC(C)O): 339 nm
- absorption maximum (in CCCCCC): 334 nm
- absorption maximum (in CCCCO): 339 nm
- absorption maximum (in CCOC(C)=O): 335 nm
- absorption maximum (in CN(C)C=O): 337 nm
- absorption maximum (in CO): 340 nm
- absorption maximum (in ClCCl): 338 nm
- absorption maximum (in O): 341 nm

Compound: CC(C)[Si](C#Cc1c2nc3ccccc3nc2c(C#C[Si](C(C)C)(C(C)C)C(C)C)c2nc3c(ccc4ccccc43)nc12)(C(C)C)C(C)C
- absorption maximum (in CCCCCC): 649 nm

Compound: CC1(C)OB(c2ccc3ccc4cccc5ccc2c3c45)OC1(C)C
- absorption maximum (in Cc1ccccc1): 378 nm

Compound: c1csc(-c2ccc(-c3ccc(-c4cccs4)s3)s2)c1
- absorption maximum (in CCCCCCCCCCCCCC): 391 nm
- absorption maximum (in ClCCl): 393 nm

Compound: C(#Cc1ccc2ncsc2c1)c1ccc(N(c2ccccc2)c2ccccc2)cc1
- absorption maximum (in Cc1ccccc1): 365 nm

Compound: Cc1c(C)c(N2c3ccccc3Oc3ccccc32)c(C)c(C)c1B(c1c(C)c(C)c(N2c3ccccc3Oc3ccccc32)c(C)c1C)c1c(C)c(C)c(N2c3ccccc3Oc3ccccc32)c(C)c1C
- absorption maximum (in CC(C)(C)c1ccc(-n2c3ccc([Si](c4ccccc4)(c4ccccc4)c4ccccc4)cc3c3cc([Si](c4ccccc4)(c4ccccc4)c4ccccc4)ccc32)cc1): 398 nm

Compound: c1cc2ccc1CCCc1ccc(c3nsnc13)CCC2
- absorption maximum (in C1CCCCC1): 378 nm
- absorption maximum (in CC#N): 384 nm
- absorption maximum (in ClC(Cl)Cl): 384 nm

Compound: CC1=CC(c2ccc3ccccc3c2)=[O+][B-]2(OC(=O)C(=O)O2)O1
- absorption maximum (in CC#N): 400 nm
- absorption maximum (in ClC(Cl)(Cl)Cl): 400 nm

Compound: CCOC(=O)c1cc(C(=O)OCC)c2cccc(OCc3ccccc3)c2n1
- absorption maximum (in CCO): 366 nm

Compound: C1CCN2CCCn3c2c(c2c3=NCCN=2)C1
- absorption maximum (in CC#N): 370 nm
- absorption maximum (in CCCCCC): 352 nm

Compound: CC[n+]1c(/C=C/c2c([O-])ccc3ccc(=O)oc23)sc2ccccc21
- absorption maximum (in C1CCOC1): 607.14 nm
- absorption maximum (in CC#N): 579.15 nm
- absorption maximum (in CC(C)=O): 590.56 nm
- absorption maximum (in CO): 519.07 nm
- absorption maximum (in CS(C)=O): 581.28 nm
- absorption maximum (in Cc1ccccc1): 623.57 nm
- absorption maximum (in ClC(Cl)Cl): 593.91 nm
- absorption maximum (in ClCCl): 597.56 nm
- absorption maximum (in O): 492.76 nm

Compound: Cc1cc2nc3cc(C)c(N)cc3[n+](-c3ccccc3)c2cc1N
- absorption maximum (in CC(C)O): 537.1 nm
- absorption maximum (in CCO): 534 nm
- absorption maximum (in CO): 529 nm
- absorption maximum (in O): 520 nm

Compound: CCn1c2ccccc2c2cc(C#Cc3cc(C#Cc4ccc5c(c4)c4ccccc4n5CC)nc(N4CCCCC4)n3)ccc21
- absorption maximum (in C1CCOC1): 393 nm
- absorption maximum (in CCOC(C)=O): 391 nm
- absorption maximum (in CN(C)C=O): 398 nm
- absorption maximum (in Cc1ccccc1): 395 nm
- absorption maximum (in ClCCl): 397 nm

Compound: CN1C(C(=O)Nc2ccccn2)=C([O-])c2sccc2S1(=O)=O
- absorption maximum (in CC#N): 382 nm
- absorption maximum (in CCCCO): 377 nm
- absorption maximum (in CCCO): 376 nm
- absorption maximum (in CCO): 375 nm
- absorption maximum (in CO): 373 nm

Compound: CC1(C)OB(c2cc3ccc4cccc5ccc(c2)c3c45)OC1(C)C
- absorption maximum (in Cc1ccccc1): 385 nm

Compound: CCN1CCN(c2ccc(/N=N/c3cc(C(=O)OC)cc(C(=O)OC)c3)cc2)CC1
- absorption maximum (in CCOC(C)=O): 416 nm

Compound: c1ccc2cc(-n3cnc4ccccc43)ccc2c1
- absorption maximum (in C1CCCCC1): 275 nm
- absorption maximum (in C1CCOC1): 277 nm
- absorption maximum (in CC#N): 278 nm
- absorption maximum (in CCO): 277 nm
- absorption maximum (in CCOC(C)=O): 278 nm
- absorption maximum (in CCOCC): 276 nm
- absorption maximum (in CO): 275 nm
- absorption maximum (in Cc1ccccc1): 275 nm
- absorption maximum (in ClC(Cl)Cl): 276 nm

Compound: CC(C)[Si]1(C(C)C)c2cc(C#N)ccc2-c2ccc(N(c3ccccc3)c3ccccc3)cc21
- absorption maximum (in C1CCCCC1): 391 nm
- absorption maximum (in CC#N): 381 nm
- absorption maximum (in CCO): 385 nm
- absorption maximum (in CCOCC): 383 nm
- absorption maximum (in CS(C)=O): 387 nm
- absorption maximum (in ClCCl): 388 nm
- absorption maximum (in c1ccccc1): 389 nm

Compound: N#C/C(=C\c1ccc(C#N)cc1)c1nc(-c2ccccc2)cs1
- absorption maximum (in CC#N): 370 nm
- absorption maximum (in CCO): 375 nm
- absorption maximum (in CN(C)C=O): 376 nm
- absorption maximum (in Cc1ccccc1): 380 nm
- absorption maximum (in ClCCl): 375 nm

Compound: Cc1cc(C)n2c1C=C1C(=O)N(C)C(c3ccc([N+](=O)[O-])cc3)=[N+]1[B-]2(F)F
- absorption maximum (in CCCCCC): 498 nm

Compound: Cc1cc(=O)oc2cc(-c3cn(Cc4ccccc4)nn3)ccc12
- absorption maximum (in CCO): 329 nm

Compound: COc1cc(N(c2ccccc2)c2ccc(C=C(C#N)C#N)c(OC)c2)ccc1C=C(C#N)C#N
- absorption maximum (in C1COCCO1): 464 nm
- absorption maximum (in CC#N): 477 nm
- absorption maximum (in CC(C)=O): 470 nm
- absorption maximum (in CCOC(C)=O): 468 nm
- absorption maximum (in CN(C)C=O): 469 nm
- absorption maximum (in CO): 471 nm
- absorption maximum (in Cc1ccccc1): 471 nm
- absorption maximum (in ClC(Cl)Cl): 480 nm
- absorption maximum (in ClCCl): 479 nm

Compound: CCCCCCN(CCCCCC)c1ccc(C#Cc2ccc(/C=C/c3ccc(-c4ccc(/C=C/c5ccc(C#Cc6ccc(N(CCCCCC)CCCCCC)cc6)cc5)cc4)cc3)cc2)cc1
- absorption maximum (in Cc1ccccc1): 400 nm

Compound: Cc1c2ccc(=[N+]3CCCCC3)cc-2oc2cc(N3CCCCC3)ccc12
- absorption maximum (in ClCCl): 555 nm

Compound: Brc1ccc(/C=C/c2cnc3ccccc3n2)cc1
- absorption maximum (in ClCCl): 369 nm
